What was measured:
Assay type in all cases: functional, Homo sapiens
Parameters in all cases: dose or concentration left out as unconfirmed
Colon cancer organoid [1] = experiment: Optimized Dual-Glo assay to identify co-culture induced drug vulnerabilities using donated chemical probes and chemogenomics kinase set in O20 CRC organoid and F20 CAF mono and co-culture. […] Cell viability is reported both mono and co-culture models.
Colon cancer organoid [2] = experiment: Optimized Dual-Glo assay to identify co-culture induced drug vulnerabilities using donated chemical probes and chemogenomics kinase set in O14 CRC organoid and F14 CAF mono and co-culture. […] Cell viability is reported both mono and co-culture models.
Colon cancer organoid [3] = experiment: Optimized Dual-Glo assay to identify co-culture induced drug vulnerabilities using donated chemical probes and chemogenomics kinase set in O06 CRC organoid and F06 CAF mono and co-culture. […] Cell viability is reported both mono and co-culture models.
[4] = Culture type Co-Culture, Transduced with Lucferase2-P2A-EGFP lentivirus
[5] = Culture type Co-Culture, Transduced with Renilla-dsRed lentivirus
[6] = Culture type Mono-Culture, Transduced with Lucferase2-P2A-EGFP lentivirus
[7] = Culture type Mono-Culture, Transduced with Renilla-dsRed lentivirus

| Structure (SMILES) | Cell Viability (Colon cancer organoid [1]; [4]) | Cell Viability (Colon cancer organoid [1]; [5]) | Cell Viability (Colon cancer organoid [1]; [6]) | Cell Viability (Colon cancer organoid [1]; [7]) | Cell Viability (Colon cancer organoid [2]; [4]) | Cell Viability (Colon cancer organoid [2]; [5]) | Cell Viability (Colon cancer organoid [2]; [6]) | Cell Viability (Colon cancer organoid [2]; [7]) | Cell Viability (Colon cancer organoid [3]; [4]) | Cell Viability (Colon cancer organoid [3]; [5]) | Cell Viability (Colon cancer organoid [3]; [6]) | Cell Viability (Colon cancer organoid [3]; [7]) |
| --- | --- | --- | --- | --- | --- | --- | --- | --- | --- | --- | --- | --- |
| Cc1cc(C)cc(C(=O)NOCCCCCC(=O)NO)c1 | 15.3163% | 402.959% | 16.4949% | 194.272% | 50.8168% | 381.601% | 48.3088% | 262.893% | 13.8956% | 454.718% | 14.9602% | 431.4% |
| O=C(O)CNC(=O)c1c(O)c2ccccc2n(Cc2ccccc2)c1=O | 96.4355% | 149.859% | 78.6397% | 102.057% | 94.5212% | 101.447% | 96.8462% | 89.4149% | 145.736% | 124.036% | 103.118% | 94.3602% |
| Cc1cc(=O)n(C)c2cc(N3C(=O)CC[C@H](NS(=O)(=O)CC(C)C)[C@H]3c3ccc(Cl)cc3)ccc12 | 107.11% | 166.434% | 116.867% | 106.138% | 75.0892% | 148.008% | 105.721% | 116.483% | 117.914% | 167.751% | 110.238% | 116.926% |
| CCn1cc(-c2cccc(C(F)(F)F)c2)c2sc(C(=N)NC3CCS(=O)(=O)CC3)cc2c1=O | 60.6992% | 124.144% | 95.8372% | 109.255% | 120.643% | 201.969% | 99.2111% | 135.353% | 95.4713% | 165.165% | 69.4061% | 200.249% |
| C[C@@H]1CC(=O)Nc2cccc(-c3ccc4c(c3)c(-c3cnn(C)c3)nn4C)c2N1 | 69.0231% | 148.573% | 48.9735% | 106.497% | 64.6948% | 192.573% | 92.2277% | 159.466% | 96.7982% | 166.358% | 47.1538% | 205.908% |
| CC(=O)c1cc(-c2cc(C(=O)NC3CC3)ccc2C)c2ncccn12 | 68.1057% | 121.421% | 109.894% | 113.039% | 100.15% | 126.848% | 106.827% | 109.242% | 95.4153% | 118.795% | 58.2009% | 132.016% |
| Nc1ncnc2c1ccn2[C@@H]1O[C@H]([C@H](O)c2ccccc2)[C@@H](O)[C@H]1O | 28.437% | 179.519% | 41.1766% | 89.3267% | 19.223% | 140.259% | 27.9797% | 80.8035% | 22.7938% | 108.338% | 39.3105% | 99.7719% |
| Cc1sc2c(c1C)C(c1ccc(Cl)cc1)=N[C@@H](CC(=O)NCCCCCCCCNC(=O)COc1cccc3c1C(=O)N(C1CCC(=O)NC1=O)C3=O)c1nnc(C)n1-2 (stereo partly specified) | 2.002% | 74.9854% | 1.636% | 22.3036% | 2.938% | 15.8723% | 4.49% | 21.4216% | 5.4511% | 19.3995% | 5.5885% | 11.9931% |
| CN(C)CCCOc1ccc(-c2cc(NCCCn3cccn3)nc(S(C)(=O)=O)n2)cc1 | 144.301% | 126.832% | 110.606% | 92.2355% | 98.5657% | 111.103% | 109.089% | 94.6282% | 126.468% | 129.443% | 108.628% | 116.281% |
| COc1cc(N(C)c2ccnc3ccc(C(F)(F)F)cc23)cc(OC)c1OC | 76.7382% | 110.267% | 123.073% | 118.477% | 114.205% | 95.5273% | 120.439% | 84.9016% | 161.309% | 161.036% | 102.201% | 116.943% |
| CNCCN1CCC(c2cc(CN(C)C(=O)c3cccc(Oc4ccccc4)c3)ccn2)CC1 | 67.0647% | 133.473% | 86.7663% | 93.4663% | 99.3221% | 120.381% | 93.8948% | 118.528% | 83.6812% | 129.007% | 98.3617% | 135.689% |
| COc1c(C)cc(NC(=O)c2nn(Cc3ccc(F)cc3)c3c2CN(C(=O)c2ccc[nH]2)C[C@]3(C)C(N)=O)cc1C | 106.451% | 95.1299% | 138.387% | 102.921% | 89.068% | 129.679% | 87.8638% | 102.007% | 66.5012% | 112.674% | 87.4341% | 110.624% |
| Cc1c(Nc2ccc(S(=O)(=O)N3CCN(C)CC3)cc2F)nc2ccc(-c3cnn(C4CC4)c3)cn2c1=O | 100.034% | 149.535% | 70.24% | 85.351% | 89.9801% | 85.4908% | 97.5645% | 92.3914% | 106.525% | 138.146% | 47.9872% | 100.536% |
| CCCCN(Cc1ccccc1)C(=O)c1ccc(S(=O)(=O)Nc2ccccc2)cc1 | 74.981% | 116.955% | 117.076% | 107.638% | 108.863% | 102.946% | 107.066% | 103.133% | 64.4698% | 76.2121% | 99.0346% | 112.912% |
| COc1cc(OC)cc(-c2noc(N3CCN(C)C4(CCN(c5ccnc(C)c5)CC4)C3)n2)c1 | 136.007% | 146.282% | 103.16% | 78.5515% | 84.0267% | 119.648% | 90.6911% | 98.8129% | 121.179% | 136.172% | 96.7414% | 97.7605% |
| CNc1cc(Oc2cc(C(=O)Nc3cc(N4CCN(C)CC4)cc(C(F)(F)F)c3)ccc2C)ncn1 | 162.082% | 75.5289% | 115.09% | 103.127% | 139.066% | 110.099% | 182.817% | 99.4408% | 72.9479% | 75.3319% | 138.287% | 104.785% |
| CC1=C(C)C(=O)C(C(C)(C)CC(=O)N(CCCCSC[C@H]2O[C@@H](n3cnc4c(N)ncnc43)[C@@H]3OC(C)(C)O[C@@H]32)Cc2cccc(-c3ccc(Cl)cc3)c2)=C(C)C1=O | 97.2624% | 117.278% | 134.873% | 88.9157% | 111.496% | 127.734% | 88.6013% | 108.216% | 82.0361% | 129.013% | 89.6281% | 110.922% |
| CC1=C(C)C(=O)C(C(C)(C)CC(=O)N(CCCCSC[C@H]2O[C@@H](n3cnc4c(N)ncnc43)[C@H](O)[C@@H]2O)Cc2cccc(-c3ccc(Cl)cc3)c2)=C(C)C1=O | 99.381% | 114.813% | 107.414% | 99.5191% | 78.0162% | 155.416% | 78.4613% | 102.407% | 117.447% | 138.552% | 64.6918% | 115.82% |

Source: ChEMBL document CHEMBL5674860, “Optimized Dual-Glo Assay to identify co-culture-induced drug vulnerabilities in 3D CRC models” (2024)
